These results are taken from patent publication US12458627B2, “Autotaxin inhibitors and uses thereof” (DF 2024 IP Acquisition, LLC, priority 2015, dated 2025).

The target in data set [1] is human autotaxin (Homo sapiens (Human), UniProt Q13822). The data set is described as follows: Human autotaxin assay. As to conditions: concentrated conditioned media from Hep3B cells; LPC substrate, choline release. It is filed as biochemical.
Data set [2] concerns Male Wistar rats, DNBS-induced colitis. The data set can be described thus: Rat DNBS-induced acute colitis model. It is filed as in vivo. How it is done: Male Wistar rats weighing 150-160 g are intracolonically administered 0.5 ml of 50 mg/ml DNBS in 30% ethanol on Day 1 or vehicle control. Autotaxin inhibitors are dosed at 5 mpk in 0.5% MC once daily from Day 0 to Day 6. Sulfasalazine is dosed at 300 mpk in 0.5% CMC-Na from Day 1 to Day 7. The rats are monitored for body weight and stool consistency daily. At study termination, colon length, colon weight, ulcer area and Masson's trichrome staining are assessed.

In data set [3] the target is ENPP7 (Homo sapiens (Human), UniProt Q6UWV6). The data set is described as follows: In vitro ENPP7 inhibition assay. It is filed as biochemical.
Data set [4] addresses ENPP3 (Homo sapiens (Human), UniProt O14638). The data set is described as follows: In vitro ENPP3 inhibition assay. In kind it is biochemical.
The test system of data set [5] is MDA-MB-435S human melanoma line. The data set is described as follows: cells. As to conditions: read-out: IC50 cell migration.
Experimental: The day before the assay, cells are serum-starved overnight in media containing 0.1-0.2% fatty-acid-free BSA. On the day of the assay, the conditioned media is removed from the cells, centrifuged for clarification and set aside. The cells are then harvested by scraping, counted, and pelleted by centrifugation. […] The assays are performed in duplicate using the Neuroprobe 96-well chemotaxis system with 8 m pore size and fibronectin-coated filters. 152 μL cells are added to 8 μL test autotaxin inhibitor compound and incubated for 15 min at 37° C. […] The filters are incubated at 37° C. for 1-24 hours and non-migrated cells removed from the top of the filter by rinsing with PBS and scraping. The filter is air dried then stained before reading the absorbance at 580 nm.
In data set [6] the test system is Female C57BL/6 mice, DSS-induced colitis. The data set can be described thus: Mouse DSS-induced chronic colitis model. It is filed as in vivo. As to conditions: compared to vehicle. Here is the method:
Autotaxin inhibitors are dosed at 30, 60 or 100 mpk PO once or twice daily from Day 0 to 63. For a positive control, Cyclosporin A (CsA) is dosed at 25 mpk on Days 1-7, 22-28, and 43-49. Mouse body weight, stool consistency, bleeding and overall Disease Activity Index (DAI) is recorded daily. After 64 days, mouse colons are removed and their length and weights recorded. Colonic sections are stained with hematoxylin and eosin stain (H&E stain) and scored based on inflammatory cell infiltration and tissue damage. Colonic sections are also stained with trichrome and scored for fibrosis.

Data set [7] deals with ENPP6 (Homo sapiens (Human), UniProt Q6UWR7). The data set can be described thus: In vitro ENPP6 inhibition assay. In kind it is biochemical.
For data set [8], the target named is ENPP1 (Homo sapiens (Human), UniProt P22413). The data set is described as follows: In vitro ENPP1 inhibition assay. In kind it is biochemical.
For data set [9], the system named is CDAA/HFD fed mice. The data set can be described thus: Mouse CDAA/HFD model of liver fibrosis. In kind it is in vivo. Here is the method: Mice are fed a choline deficient diet supplemented with 0.1% methionine and 60% kCal fat (CDAA/HFD) for 12-14 weeks. Mice receive 1, 3, 10, or 30 mpk of autotaxin inhibitor test compound or vehicle starting at the beginning of week 6 after feeding (therapeutically). The following liver enzymes are measured weekly: aspartate transaminase, alkaline phosphatase and bilirubin. At the end of the study, mice are sacrificed and the liver harvested and frozen at −80° C. for the biochemical analysis of liver fibrosis or fixed in neutral-buffered formalin for histological assessment of liver fibrosis. For the biochemical assessment of liver fibrosis, liver tissue homogenates are analyzed for collagen concentration using a hydroxyproline assay. For the histological assessment of liver fibrosis, fixed liver tissue is stained with Picrosirius Red (PSR) stain and severity of liver fibrosis scored using light microscopy. After qualitative scoring of liver fibrosis, quantitation of fibrosis was determined using whole slide images captured at 20× magnification and calculating the percentage of the liver section that was PSR-positive using Indica Labs' Halo® area quantification image analysis software.

Data set [10] concerns C57B16/J male mice fed a high fat diet. The data set is described as follows: Glucose tolerance in mice fed a high fat diet. In kind it is in vivo, mouse. As to conditions: 15 mg/kg twice daily for two days prior to sampling and once on the day of sampling. Here is the method:
C57B16/J male mice are fed a normal diet until 6-10 weeks of age. […] For determination of blood glucose, mice are administered test compound orally in 0.5% methocel once or twice daily for several days prior to the glucose challenge. On the day of the glucose tolerance test (GTT) mice are fasted for 6-8 hours and a last dose of test compound administered orally 1-3 hours before the intraperitoneal (i.p.) injection of 1 g/kg D-glucose (Sigma). Blood from the tail vein is sampled before the glucose load (baseline glucose) and every 15-30 min over the next 120 min after the glucose challenge to monitor blood glucose concentration. Blood glucose is quantified using a glucose meter (Accu-Chek, Roche Diagnostics or AlphaTRAK, Abbott Animal Health) and plotted vs. time. Total blood glucose area under the curve (AUC) after the i.p. glucose challenge is calculated from the time plot using GraphPad Prism6.

Data set [11] deals with dog. The data set can be described thus: Dog liver toxicity study. It is filed as in vivo. Here is the method: In some embodiments, liver toxicity can be assessed in suitable in vivo assays. In some embodiments, liver toxicity is assessed by monitoring any increases in the levels of liver markers ALT, AST, AlkP and bilirubin.
The mark [12] stands for this setting: 5 mpk once daily, DNBS acute colitis.
[13] abbreviates: 5 mpk once daily, similar to sulfasalazine.

SMILES strings stand for the structures. Some results are limits rather than exact numbers.

Sequence of ENPP7 (Q6UWV6 22-458, species assumed): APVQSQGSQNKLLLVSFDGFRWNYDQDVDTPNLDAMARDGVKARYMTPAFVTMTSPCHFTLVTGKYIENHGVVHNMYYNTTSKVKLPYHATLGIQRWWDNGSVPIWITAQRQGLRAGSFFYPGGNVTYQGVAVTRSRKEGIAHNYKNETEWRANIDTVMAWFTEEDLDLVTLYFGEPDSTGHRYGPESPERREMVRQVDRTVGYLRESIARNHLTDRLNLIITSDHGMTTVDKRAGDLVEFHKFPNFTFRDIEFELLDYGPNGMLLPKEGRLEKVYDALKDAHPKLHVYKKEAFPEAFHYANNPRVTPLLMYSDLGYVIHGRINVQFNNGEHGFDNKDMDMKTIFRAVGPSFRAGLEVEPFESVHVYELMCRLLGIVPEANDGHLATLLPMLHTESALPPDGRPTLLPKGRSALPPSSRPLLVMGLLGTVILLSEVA
Sequence of ENPP1 (P22413 whole entry, species assumed): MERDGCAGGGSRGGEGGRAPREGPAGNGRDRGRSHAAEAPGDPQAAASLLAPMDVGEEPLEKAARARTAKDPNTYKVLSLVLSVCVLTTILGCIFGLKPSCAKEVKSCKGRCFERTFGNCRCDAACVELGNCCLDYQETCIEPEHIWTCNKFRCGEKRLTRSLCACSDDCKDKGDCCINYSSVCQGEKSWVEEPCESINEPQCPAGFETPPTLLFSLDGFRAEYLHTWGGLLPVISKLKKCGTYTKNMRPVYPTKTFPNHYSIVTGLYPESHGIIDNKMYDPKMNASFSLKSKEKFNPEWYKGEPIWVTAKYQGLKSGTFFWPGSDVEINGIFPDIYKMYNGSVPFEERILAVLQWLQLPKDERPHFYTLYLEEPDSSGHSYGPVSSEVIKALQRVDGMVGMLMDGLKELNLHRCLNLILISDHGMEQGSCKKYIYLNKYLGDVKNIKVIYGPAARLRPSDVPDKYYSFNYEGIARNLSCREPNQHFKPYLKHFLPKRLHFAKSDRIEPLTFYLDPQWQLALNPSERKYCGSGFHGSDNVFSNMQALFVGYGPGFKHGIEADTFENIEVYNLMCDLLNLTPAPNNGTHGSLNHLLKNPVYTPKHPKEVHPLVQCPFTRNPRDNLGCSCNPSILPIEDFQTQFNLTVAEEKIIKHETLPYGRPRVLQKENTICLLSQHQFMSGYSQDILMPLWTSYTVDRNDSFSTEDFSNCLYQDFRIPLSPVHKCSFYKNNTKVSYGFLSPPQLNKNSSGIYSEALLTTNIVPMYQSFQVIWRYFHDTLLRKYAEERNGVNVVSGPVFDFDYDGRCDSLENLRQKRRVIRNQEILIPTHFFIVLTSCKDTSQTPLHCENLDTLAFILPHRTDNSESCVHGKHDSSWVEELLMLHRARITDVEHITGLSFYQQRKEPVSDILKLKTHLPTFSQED
Sequence of ENPP6 (Q6UWR7 23-440, species assumed): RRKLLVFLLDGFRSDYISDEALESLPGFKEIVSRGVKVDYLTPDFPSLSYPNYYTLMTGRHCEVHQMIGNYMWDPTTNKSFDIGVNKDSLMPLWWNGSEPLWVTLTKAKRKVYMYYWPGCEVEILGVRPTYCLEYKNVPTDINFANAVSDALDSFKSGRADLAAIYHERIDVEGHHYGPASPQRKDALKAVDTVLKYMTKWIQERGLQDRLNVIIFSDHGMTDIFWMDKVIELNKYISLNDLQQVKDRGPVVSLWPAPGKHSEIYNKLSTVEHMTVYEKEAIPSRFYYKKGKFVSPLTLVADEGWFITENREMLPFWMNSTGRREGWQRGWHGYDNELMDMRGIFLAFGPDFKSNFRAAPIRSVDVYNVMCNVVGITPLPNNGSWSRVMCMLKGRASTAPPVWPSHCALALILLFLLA
Sequence of ENPP3 (O14638 whole entry, species assumed): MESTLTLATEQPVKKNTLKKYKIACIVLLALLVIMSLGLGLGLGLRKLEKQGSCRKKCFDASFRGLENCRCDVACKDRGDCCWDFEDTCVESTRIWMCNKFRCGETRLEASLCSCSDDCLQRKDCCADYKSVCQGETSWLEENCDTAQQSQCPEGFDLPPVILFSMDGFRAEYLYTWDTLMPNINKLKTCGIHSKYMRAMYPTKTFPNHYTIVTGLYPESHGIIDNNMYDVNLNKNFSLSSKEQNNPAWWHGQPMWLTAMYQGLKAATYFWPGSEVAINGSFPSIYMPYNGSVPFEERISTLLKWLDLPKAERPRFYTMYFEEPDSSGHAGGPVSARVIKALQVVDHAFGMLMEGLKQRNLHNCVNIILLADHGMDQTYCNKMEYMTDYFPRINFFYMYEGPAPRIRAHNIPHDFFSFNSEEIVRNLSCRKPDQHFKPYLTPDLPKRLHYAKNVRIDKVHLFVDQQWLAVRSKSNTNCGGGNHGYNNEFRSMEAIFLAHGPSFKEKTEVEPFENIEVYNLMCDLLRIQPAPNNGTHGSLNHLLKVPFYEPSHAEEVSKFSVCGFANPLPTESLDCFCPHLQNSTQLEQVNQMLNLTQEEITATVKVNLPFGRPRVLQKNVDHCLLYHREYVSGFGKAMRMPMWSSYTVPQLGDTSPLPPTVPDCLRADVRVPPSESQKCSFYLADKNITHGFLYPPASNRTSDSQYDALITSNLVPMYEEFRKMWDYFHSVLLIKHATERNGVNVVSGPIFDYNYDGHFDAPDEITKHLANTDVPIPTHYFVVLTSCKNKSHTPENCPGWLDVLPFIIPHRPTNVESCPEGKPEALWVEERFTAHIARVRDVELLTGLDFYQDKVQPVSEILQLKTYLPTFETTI

The compound `CCn1cc(-n2c(Cl)c(Sc3cccc(CC(=O)O)c3F)c3ccc(Cl)c(F)c32)cn1` [Compound I, 2-(3-((2,6-dichloro-1-(1-ethyl-1H-pyrazol-4-yl)-7-fluoro-1H-indol-3-yl)thio)-2-fluorophenyl)acetic acid] displayed an IC50 in data set [1] of less than 500 nM.

`CCCn1cc(-n2c(Cl)c(Sc3cccc(CC(=O)O)c3F)c3ccc(Cl)c(F)c32)cn1` [Compound H, 2-(3-((2,6-dichloro-7-fluoro-1-(1-propyl-1H-pyrazol-4-yl)-1H-indol-3-yl)thio)-2-fluorophenyl)acetic acid]: the IC50 in data set [1] was less than 500 nM.

Compound `O=C1C2Cc3c(n(Cc4ccc(F)cc4)c4ccccc34)CN2C(=O)N1CCN1CCNCC1` (centres unmarked) [Compound D, 4-(2-(6-(4-fluorobenzyl)-1,3-dioxo-5,6,11a-tetrahydro-1H-imidazo[1′,5′:1,6]pyrido[3,4-b]indol-2(3H, 5H, 6H)-yl)ethyl)piperazin-1-ium chloride] came in with an IC50 in [1] of less than 500 nM.

Compound `O=C1C2Cc3c(n(Cc4ccc(F)cc4)c4ccccc34)CN2C(=O)N1CCC1CCNCC1` (centres unmarked) [Compound C, 4-(2-(6-(4-fluorobenzyl)-1,3-dioxo-5,6,11a-tetrahydro-1H-imidazo[1′,5′:1,6]pyrido[3,4-b]indol-2(3H, 5H, 6H)-yl)ethyl)piperidin-1-ium chloride] registered an IC50 in data set [1] of less than 500 nM.

`CCCn1cc(-n2c(Cl)c(Sc3cccc(C(=O)O)n3)c3ccc(Cl)c(F)c32)cn1` [Compound F, 6-((2,6-dichloro-7-fluoro-1-(1-propyl-1H-pyrazol-4-yl)-1H-indol-3-yl)thio)picolinic acid]: the IC50 in [1] is less than 500 nM.

In the case of `CCCn1cc(-n2c(Cl)c(Sc3cccc(C(=O)O)c3F)c3ccc(Cl)c(F)c32)cn1` [Compound B, 3-((2,6-dichloro-7-fluoro-1-(1-propyl-1H-pyrazol-4-yl)-1H-indol-3-yl)thio)-2-fluorobenzoic acid], the “effect on colitis by reducing ulcer area” value in data set [2] (5 mpk once daily Day 0 to Day 6, DNBS rats) was “positive effect”. The body weight loss entry in data set [2] (setting [12]) was “no significant effect”. The stool consistency result in data set [2] (setting [12]) is on record as “no significant effect”. Also, the colon weight entry in [2] (setting [13]) was “reduced”. The ulcer area entry in data set [2] (setting [13]) is given as “reduced”. For the same compound, the IC50 in [3] is greater than 10000 nM; in data set [4] it was greater than 10000 nM; in data set [5] it was 15 nM; in [7], greater than 10000 nM; in data set [8], greater than 10000 nM. The colon length entry in data set [6] was “significant increase”. In addition, the “colon length, longer than vehicle” value in data set [6] was “at least 30%”. In data set [9] (10 mpk, liver, CDAA/HFD mice), the “decrease in % PSR positive area” value is reported as “approximately 35%”. In data set [9] (10 mpk, therapeutic dosing, CDAA/HFD mice), the liver fibrosis entry was “significantly reduced”. The “hepatic fibrosis (FIG. 4, percent PSR positive area)” value in data set [9] (dosed therapeutically, mouse CDAA/HFD model) is recorded as “attenuate”. Moreover, in [10], the baseline glucose result was “decreased”. In addition, the “total blood glucose AUC” value in data set [10] (i.p. glucose challenge) is on record as “decreased”. In data set [11] (dog liver toxicity study), the “liver markers (ALT, AST, AlkP and bilirubin)” value is “did not exhibit the same effects”. Further, the “increases in liver markers ALT, AST, AlkP and bilirubin” value in [11] (dosed at 100 mpk for 5 days) is given as “no increases”.

With `CCn1cc(-n2c(Cl)c(Sc3cccc(C(=O)O)n3)c3ccc(Cl)c(F)c32)cn1` [Compound G, 6-((2,6-dichloro-1-(1-ethyl-1H-pyrazol-4-yl)-7-fluoro-1H-indol-3-yl)thio)picolinic acid], the IC50 in [1] was less than 500 nM.

As to `CCn1cc(-n2c(Cl)c(Sc3cccc(C(=O)O)c3F)c3ccc(Cl)c(F)c32)cn1` [Compound E, 3-((2,6-dichloro-1-(1-ethyl-1H-pyrazol-4-yl)-7-fluoro-1H-indol-3-yl)thio)-2-fluorobenzoic acid], the IC50 in [1] was less than 500 nM.
